Measurements taken from ChEMBL document CHEMBL5226381, “Iterative Methylation Leads to 3-Methylchuangxinmycin Production in Actinoplanes tsinanensis CPCC 200056” (2023).
≈ marks a conversion by molar mass, not a printed value.

Tests used:
Format in all cases: functional
Details in all cases: time 7-10 day
[1] = test system: Mycobacterium tuberculosis; experiment: Antitubercular activity against INH/RIF-resistant Mycobacterium tuberculosis clinical isolate M15 assessed as inhibition of bacterial growth incubated for 7 to 10 days by Alamar Blue staining based analysis
[2] = test system: Mycobacterium tuberculosis; experiment: Antitubercular activity against INH/RIF-resistant Mycobacterium tuberculosis clinical isolate M34 assessed as inhibition of bacterial growth incubated for 7 to 10 days by Alamar Blue staining based analysis
[3] = test system: Mycobacterium tuberculosis; experiment: Antitubercular activity against INH/RIF-resistant Mycobacterium tuberculosis clinical isolate M7 assessed as inhibition of bacterial growth incubated for 7 to 10 days by Alamar Blue staining based analysis
[4] = test system: Mycobacterium tuberculosis; experiment: Antitubercular activity against INH/RIF-resistant Mycobacterium tuberculosis clinical isolate M6 assessed as inhibition of bacterial growth incubated for 7 to 10 days by Alamar Blue staining based analysis

Row | SMILES | MIC [1] | MIC [2] | MIC [3] | MIC [4]
1 | O=C(O)[C@H]1Cc2c[nH]c3cccc(c23)S1 | 0.78 µg/mL (≈ 3.56 µM) | 0.78 µg/mL (≈ 3.56 µM) | 0.78 µg/mL (≈ 3.56 µM) | 0.78 µg/mL (≈ 3.56 µM)
2 | C[C@H]1c2c[nH]c3cccc(c23)S[C@H]1C(=O)O [CHUANGXINMYCIN] | 1.56 µg/mL (≈ 6.69 µM) | 3.12 µg/mL (≈ 13.4 µM) | 0.78 µg/mL (≈ 3.34 µM) | 0.78 µg/mL (≈ 3.34 µM)
3 | CO[C@H]1/C=C/O[C@@]2(C)Oc3c(C)c(O)c4c(O)c(c(/C=N/N5CCN(C)CC5)c(O)c4c3C2=O)NC(=O)/C(C)=C\C=C\[C@H](C)[C@H](O)[C@@H](C)[C@@H](O)[C@@H](C)[C@H](OC(C)=O)[C@@H]1C [RIFAMPIN] | > 64 µg/mL | 16 µg/mL (≈ 19.4 µM) | 8 µg/mL (≈ 9.72 µM) | 16 µg/mL (≈ 19.4 µM)
4 | NNC(=O)c1ccncc1 [ISONIAZID] | 4 µg/mL (≈ 29.2 µM) | 8 µg/mL (≈ 58.3 µM) | 8 µg/mL (≈ 58.3 µM) | 8 µg/mL (≈ 58.3 µM)
5 | CC1(C)c2c[nH]c3cccc(c23)S[C@H]1C(=O)O | 12.5 µg/mL (≈ 50.5 µM) | 25 µg/mL (≈ 101 µM) | 25 µg/mL (≈ 101 µM) | 12.5 µg/mL (≈ 50.5 µM)
